# PubChem BioAssay AID602351 (The Scripps Research Institute Molecular Screening Center, 2012)
# Calls of active or inactive are those of the source. How the calls were made is not given here.
# Assays:
# Test in all cases: mouse tissue hydrolase off-target profiling – ABPP MudPIT, LC-MS, ABHD6 analysis, in vivo study for DAGLb inhibitor project, late-stage follow-up (AID 602351)
# Abhd11 = conditions: serine hydrolase spectral counts, stronger effect = lower value
# Abhd12 = conditions: serine hydrolase spectral counts, stronger effect = lower value
# Acot1 = conditions: serine hydrolase spectral counts, stronger effect = lower value
# Acot2 = conditions: serine hydrolase spectral counts, stronger effect = lower value
# [1] = target: Acyl-protein thioesterase 1 (Mus musculus) (UniProt P97823); conditions: serine hydrolase spectral counts
# Aoah = conditions: serine hydrolase spectral counts, stronger effect = lower value
# Apeh = conditions: serine hydrolase spectral counts, stronger effect = lower value
# Ctsa = conditions: serine hydrolase spectral counts, stronger effect = lower value
# Ctsg = conditions: serine hydrolase spectral counts, stronger effect = lower value
# [2] = target: Diacylglycerol lipase-beta (Mus musculus) (UniProt Q91WC9); conditions: serine hydrolase spectral counts, Daglb, stronger effect = lower value
# Dpp4 = conditions: serine hydrolase spectral counts, stronger effect = lower value
# Dpp7 = conditions: serine hydrolase spectral counts, stronger effect = lower value
# Dpp8 = conditions: serine hydrolase spectral counts, stronger effect = lower value
# Dpp9 = conditions: serine hydrolase spectral counts, stronger effect = lower value
# Elane = conditions: serine hydrolase spectral counts, stronger effect = lower value
# Fam108b = conditions: serine hydrolase spectral counts, stronger effect = lower value
# Fasn = conditions: serine hydrolase spectral counts, stronger effect = lower value
# Gzma = conditions: serine hydrolase spectral counts, stronger effect = lower value
# Iah1 = conditions: serine hydrolase spectral counts, stronger effect = lower value
# KIAA1363 = conditions: serine hydrolase spectral counts, stronger effect = lower value
# Lipa = conditions: serine hydrolase spectral counts, stronger effect = lower value
# Lipe = conditions: serine hydrolase spectral counts, stronger effect = lower value
# Lpl = conditions: serine hydrolase spectral counts, stronger effect = lower value
# Lypla2 = conditions: serine hydrolase spectral counts, stronger effect = lower value
# Magl = conditions: serine hydrolase spectral counts, stronger effect = lower value
# [3] = target: Monoacylglycerol lipase ABHD6 (Mus musculus) (UniProt Q8R2Y0); conditions: serine hydrolase spectral counts, stronger effect = lower value
# Pafah1b2 = conditions: serine hydrolase spectral counts, stronger effect = lower value
# Pafah1b3 = conditions: serine hydrolase spectral counts, stronger effect = lower value
# [4] = target: Palmitoyl-protein thioesterase ABHD10, mitochondrial (Mus musculus) (UniProt Q6PE15); conditions: serine hydrolase spectral counts, stronger effect = lower value
# Pla2g15 = conditions: serine hydrolase spectral counts, stronger effect = lower value
# [5] = target: Platelet-activating factor acetylhydrolase (Mus musculus) (UniProt Q60963); conditions: serine hydrolase spectral counts
# [6] = target: Platelet-activating factor acetylhydrolase 2, cytoplasmic (Mus musculus) (UniProt Q8VDG7); conditions: serine hydrolase spectral counts
# Pnpla6 = conditions: serine hydrolase spectral counts, stronger effect = lower value
# Pnpla7 = conditions: serine hydrolase spectral counts, stronger effect = lower value
# Ppt2 = conditions: serine hydrolase spectral counts, stronger effect = lower value
# Prcp = conditions: serine hydrolase spectral counts, stronger effect = lower value
# Prepl = conditions: serine hydrolase spectral counts, stronger effect = lower value
# Tpp2 = conditions: serine hydrolase spectral counts, stronger effect = lower value
# [7] = significance of hydrolase inhibition
# Sequence of Platelet-activating factor acetylhydrolase 2, cytoplasmic (Mus musculus) (Q8VDG7 whole entry, looked up): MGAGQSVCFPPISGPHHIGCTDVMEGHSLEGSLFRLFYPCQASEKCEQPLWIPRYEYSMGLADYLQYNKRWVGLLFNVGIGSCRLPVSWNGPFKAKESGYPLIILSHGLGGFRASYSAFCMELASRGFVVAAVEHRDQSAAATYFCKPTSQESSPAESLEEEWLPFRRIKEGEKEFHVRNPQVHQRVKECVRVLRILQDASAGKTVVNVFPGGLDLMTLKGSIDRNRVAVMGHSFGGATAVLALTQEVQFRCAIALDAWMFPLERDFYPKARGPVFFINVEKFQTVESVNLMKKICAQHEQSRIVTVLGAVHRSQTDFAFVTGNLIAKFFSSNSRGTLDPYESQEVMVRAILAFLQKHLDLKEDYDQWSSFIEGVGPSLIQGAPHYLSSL
# Sequence of Platelet-activating factor acetylhydrolase (Mus musculus) (Q60963 whole entry, looked up): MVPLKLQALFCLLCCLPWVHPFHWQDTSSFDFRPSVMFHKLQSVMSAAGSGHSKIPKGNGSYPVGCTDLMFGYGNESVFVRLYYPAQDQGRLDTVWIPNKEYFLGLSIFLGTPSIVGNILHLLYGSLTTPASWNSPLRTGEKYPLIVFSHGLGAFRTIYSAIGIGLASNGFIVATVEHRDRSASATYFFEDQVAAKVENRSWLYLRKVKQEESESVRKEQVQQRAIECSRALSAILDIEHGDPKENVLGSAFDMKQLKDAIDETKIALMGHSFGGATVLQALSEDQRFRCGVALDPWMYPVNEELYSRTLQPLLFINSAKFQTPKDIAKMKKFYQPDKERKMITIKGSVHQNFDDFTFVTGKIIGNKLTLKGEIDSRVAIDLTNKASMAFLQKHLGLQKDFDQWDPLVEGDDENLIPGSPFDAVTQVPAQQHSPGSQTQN
# Sequence of Diacylglycerol lipase-beta (Mus musculus) (Q91WC9 whole entry, looked up): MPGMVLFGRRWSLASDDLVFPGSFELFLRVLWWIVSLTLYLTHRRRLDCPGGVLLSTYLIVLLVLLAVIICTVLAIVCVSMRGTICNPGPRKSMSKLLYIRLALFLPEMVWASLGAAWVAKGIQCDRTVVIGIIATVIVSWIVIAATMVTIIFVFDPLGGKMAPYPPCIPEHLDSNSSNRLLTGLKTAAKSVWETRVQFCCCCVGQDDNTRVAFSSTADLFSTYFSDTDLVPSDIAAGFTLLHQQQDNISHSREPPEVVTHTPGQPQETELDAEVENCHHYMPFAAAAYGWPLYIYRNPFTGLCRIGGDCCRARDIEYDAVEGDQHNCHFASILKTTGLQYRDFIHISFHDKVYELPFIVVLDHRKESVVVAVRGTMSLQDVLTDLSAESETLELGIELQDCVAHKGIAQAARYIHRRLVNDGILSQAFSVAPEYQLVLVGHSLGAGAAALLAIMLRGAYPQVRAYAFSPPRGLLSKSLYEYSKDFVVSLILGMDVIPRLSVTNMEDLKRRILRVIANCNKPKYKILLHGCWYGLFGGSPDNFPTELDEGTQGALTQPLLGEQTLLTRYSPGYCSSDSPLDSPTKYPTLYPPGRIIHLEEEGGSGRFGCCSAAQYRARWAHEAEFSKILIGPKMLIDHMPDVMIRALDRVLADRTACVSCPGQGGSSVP
# Sequence of Monoacylglycerol lipase ABHD6 (Mus musculus) (Q8R2Y0 whole entry, looked up): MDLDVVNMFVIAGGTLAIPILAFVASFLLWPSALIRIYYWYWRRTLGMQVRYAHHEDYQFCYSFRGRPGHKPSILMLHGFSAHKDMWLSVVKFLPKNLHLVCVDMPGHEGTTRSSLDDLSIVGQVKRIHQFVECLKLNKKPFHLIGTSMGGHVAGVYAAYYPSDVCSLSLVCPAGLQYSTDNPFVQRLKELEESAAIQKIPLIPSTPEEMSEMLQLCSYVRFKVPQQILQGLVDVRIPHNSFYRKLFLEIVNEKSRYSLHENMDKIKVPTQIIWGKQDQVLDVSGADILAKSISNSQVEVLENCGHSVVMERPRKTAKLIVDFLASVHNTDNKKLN
# Sequence of Palmitoyl-protein thioesterase ABHD10, mitochondrial (Mus musculus) (Q6PE15 whole entry, looked up): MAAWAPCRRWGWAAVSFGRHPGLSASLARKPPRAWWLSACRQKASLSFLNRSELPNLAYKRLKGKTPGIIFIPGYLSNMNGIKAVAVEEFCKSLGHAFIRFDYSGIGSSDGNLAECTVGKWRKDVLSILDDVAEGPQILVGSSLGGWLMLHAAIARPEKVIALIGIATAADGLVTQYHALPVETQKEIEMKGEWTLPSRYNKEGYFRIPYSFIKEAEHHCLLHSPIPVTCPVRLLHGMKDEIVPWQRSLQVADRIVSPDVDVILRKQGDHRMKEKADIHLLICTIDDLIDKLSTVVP
# Sequence of Acyl-protein thioesterase 1 (Mus musculus) (P97823 whole entry, looked up): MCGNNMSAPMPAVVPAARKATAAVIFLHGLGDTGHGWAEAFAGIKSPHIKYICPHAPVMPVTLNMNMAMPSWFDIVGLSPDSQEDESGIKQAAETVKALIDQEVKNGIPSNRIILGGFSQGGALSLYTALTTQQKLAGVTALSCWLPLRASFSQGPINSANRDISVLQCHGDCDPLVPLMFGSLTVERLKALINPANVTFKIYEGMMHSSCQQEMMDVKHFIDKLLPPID
structure (smiles),measurement,setting,value
COc1ccc(-c2ccc(-c3cn(C(=O)N4CCCCC4c4ccccc4)nn3)cc2)cc1 (stereo unspecified),"spectral counts, test compound",Abhd11,6.67 (inactive)
same,p value vs vehicle,Abhd11; [7],0.422
same,"spectral counts, test compound",Abhd12,24.3 (inactive)
same,p value vs vehicle,Abhd12; [7],0.363
same,"spectral counts, test compound",Acot1,25.7 (inactive)
same,p value vs vehicle,Acot1; [7],0.22
same,"spectral counts, test compound",Acot2,41.7 (inactive)
same,p value vs vehicle,Acot2; [7],0.041
same,"spectral counts, test compound","[1]; Lypla1, stronger effect = lower value",51.7 (inactive)
same,p value vs vehicle,"[1]; Lypla1, significance of hydrolase inhibition, stronger effect = lower value",0.676
same,"spectral counts, test compound",Aoah,14.7 (inactive)
same,p value vs vehicle,Aoah; [7],0.53
same,"spectral counts, test compound",Apeh,148 (inactive)
same,p value vs vehicle,Apeh; [7],0.187
same,"spectral counts, test compound",Ctsa,86.7 (inactive)
same,p value vs vehicle,Ctsa; [7],0.035
same,"spectral counts, test compound",Ctsg,36.3 (inactive)
same,p value vs vehicle,Ctsg; [7],0.101
same,"spectral counts, test compound",[2],13.7 (inactive)
same,p value vs vehicle,[2]; [7],0.28
same,"spectral counts, test compound",Dpp4,42 (inactive)
same,p value vs vehicle,Dpp4; [7],0.1
same,"spectral counts, test compound",Dpp7,16.3 (inactive)
same,p value vs vehicle,Dpp7; [7],0.826
same,"spectral counts, test compound",Dpp8,31 (inactive)
same,p value vs vehicle,Dpp8; [7],0.639
same,"spectral counts, test compound",Dpp9,62 (inactive)
same,p value vs vehicle,Dpp9; [7],0.978
same,"spectral counts, test compound",Elane,28.3 (inactive)
same,p value vs vehicle,Elane; [7],0.242
same,"spectral counts, test compound",Fam108b,13.7 (inactive)
same,p value vs vehicle,Fam108b; [7],0.018
same,"spectral counts, test compound",Fasn,75.7 (inactive)
same,p value vs vehicle,Fasn; [7],0.026
same,"spectral counts, test compound",Gzma,5.33 (inactive)
same,p value vs vehicle,Gzma; [7],0.275
same,"spectral counts, test compound",Iah1,5.67 (inactive)
same,p value vs vehicle,Iah1; [7],0.442
same,"spectral counts, test compound",KIAA1363,167 (inactive)
same,p value vs vehicle,KIAA1363; [7],0.699
same,"spectral counts, test compound",Lipa,3 (inactive)
same,p value vs vehicle,Lipa; [7],0.482
same,"spectral counts, test compound",Lipe,39.7 (inactive)
same,p value vs vehicle,Lipe; [7],0.014
same,"spectral counts, test compound",Lpl,58.3 (inactive)
same,p value vs vehicle,Lpl; [7],0.211
same,"spectral counts, test compound",Lypla2,89.3 (inactive)
same,p value vs vehicle,Lypla2; [7],0.688
same,"spectral counts, test compound",Magl,18 (inactive)
same,p value vs vehicle,Magl; [7],0.937
same,"spectral counts, test compound",[3],0.667
same,p value vs vehicle,[3]; [7],0.006
same,"spectral counts, test compound",Pafah1b2,28.3 (inactive)
same,p value vs vehicle,Pafah1b2; [7],0.6
same,"spectral counts, test compound",Pafah1b3,21.7 (inactive)
same,p value vs vehicle,Pafah1b3; [7],0.409
same,"spectral counts, test compound",[4],13.3 (inactive)
same,p value vs vehicle,[4]; [7],0.911
same,"spectral counts, test compound",Pla2g15,29 (inactive)
same,p value vs vehicle,Pla2g15; [7],0.012
same,"spectral counts, test compound","[5]; Pla2g7, stronger effect = lower value",17.7 (inactive)
same,p value vs vehicle,"[5]; Pla2g7, significance of hydrolase inhibition, stronger effect = lower value",0.115
same,"spectral counts, test compound","[6]; Pafah2, stronger effect = lower value",16 (inactive)
same,p value vs vehicle,"[6]; Pafah2, significance of hydrolase inhibition, stronger effect = lower value",0.202
same,"spectral counts, test compound",Pnpla6,4 (inactive)
same,p value vs vehicle,Pnpla6; [7],0.028
same,"spectral counts, test compound",Pnpla7,34 (inactive)
same,p value vs vehicle,Pnpla7; [7],0.656
same,"spectral counts, test compound",Ppt2,5.67 (inactive)
same,p value vs vehicle,Ppt2; [7],0.451
same,"spectral counts, test compound",Prcp,99.7 (inactive)
same,p value vs vehicle,Prcp; [7],0.659
same,"spectral counts, test compound",Prepl,4.33 (inactive)
same,p value vs vehicle,Prepl; [7],0.101
same,"spectral counts, test compound",Tpp2,21 (inactive)
same,p value vs vehicle,Tpp2; [7],0.018
